In patent US20140107100A1, “Benzoxazepines as Inhibitors of PI3K/mTOR and Methods of Their Use and Manufacture” (EXELIXIS, INC., priority 2010, published 2014) one finds IC50 data, which are given here for 11 compounds.

The test addresses mTOR/GbL/Raptor (mTORC1) (Homo sapiens, UniProt P42345). Nature of the test: mTOR/GbL/Raptor (mTORC1) ELISA assay, phosphorylation of 4E-BP1. Particulars: 0.2 nM mTORC1, 40 uM ATP, 50 nM NHis-tagged 4E-BP1, 120 minutes; read-out: IC50 in this assay (mTORC1 ELISA). The class given is biochemical. How it is done:
The measurement of mTORC1 enzyme activity was performed in an ELISA assay format following the phosphorylation of 4E-BP1 protein. All experiments were performed in the 384-well format. Generally, 0.5 μL DMSO containing varying concentrations of the test Compound was mixed with 15 μL enzyme solution. Kinase reactions were initiated with the addition of 15 μL of substrates-containing solution. The assay conditions were-as follows; 0.2 nM mTORC1, 40 uM ATPand 50 nM NHis-tagged4E-BP1 in20 mM Hepes, pH 7.2, 1 mM DTT, 50 mMNaC1, 10 mM MnC12, 0.02 mg/mL BSA, 0.01% CHAPS, 50 mM β-glycerophosphate. Following an incubation of 120 minutes at anibient temperature, 20 μL of the reaction volume was transferred to a Ni-Chelate-coated 384-well plate. The binding step of the 4E-BP1 protein proceeded for 60 minutes, followed by washing 4 times each with 50 uL of Tris-buffered saline solution (TBS). Anti-phospho-4E-BPl rabbit-IgG ([…]. 1:5000) in 5% BSA-TBST (0.2% Tween-20 in TBS) was added and further incubated for 60 minutes. Incubation with a secondary HRP-tagged anti-IgG was similarly performed after washing off the primary antibody (4 washes of 50 μL). Following the final wash step with TBST, 20 μL of SuperSignal ELISA Femto (Pierce Biotechnology) was added and the luminescence measured using an En Vision plate reader.
A general note: In an ELISA, binding on a coated surface is turned into a signal by an enzyme label.
Consider `CNc1nc(-c2cc(C)c3c(c2)CN(c2nc(N)nc(C)c2C(C)C)CCO3)cs1` [Compound 112, 4-methyl-5-(1-methylethyl)-6-{9-methyl-7-[2-(methylamino)-1,3-thiazol-4-yl]-2,3-dihydro-1,4-benzoxazepin-4(5H)-yl}pyrimidin-2-amine], for which the half-inhibitory concentration (IC50) lay within 100 to 500 nM.

As to `Cc1cc(-c2cnc3sc(N)nc3c2)cc2c1OCCN(c1nc(N)nc(C)c1C)C2` [Compound 7, 6-[4-(2-amino-5,6-dimethylpyrimidin-4-yl)-9-methyl-2,3,4,5-tetrahydro-1,4-benzoxazepin-7-yl][1,3]thiazolo[5,4-b]pyridin-2-amine], the IC50 was in the range of 100 to 500 nM.

Regarding `Cc1nc2c(c(N3CCOc4c(C)cc(-c5cnc6sc(N)nc6c5)cc4C3)n1)CC(C)(C)CC2` [Compound 20, 6-[9-methyl-4-(2,6,6-trimethyl-5,6,7,8-tetrahydroquinazolin-4-yl)-2,3,4,5-tetrahydro-1,4-benzoxazepin-7-yl][1,3]thiazolo[5,4-b]pyridin-2-amine], the IC50 was at most 100 nM.

For the compound `CCNC(=O)c1nc(C)c(C(C)C)c(N2CCOc3c(C)cc(-c4cnc5sc(N)nc5c4)cc3C2)n1` [Compound 113, 4-[7-(2-amino[1,3]thiazolo[5,4-b]pyridin-6-yl)-9-methyl-2,3-dihydro-1,4-benzoxazepin-4(5H)-yl]-N-ethyl-6-methyl-5-(1-methylethyl)pyrimidine-2-carboxamide], the IC50 was at most 100 nM.

As to `Cc1nc2ccc(-c3cc(C)c4c(c3)CN(c3ncnc5ccc(I)cc35)CCO4)cc2[nH]1` [Compound 47, 4-(6-iodoquinazolin-4-yl)-9-methyl-7-(2-methyl-1H-benzimidazol-6-yl)-2,3,4,5-tetrahydro-1,4-benzoxazepine], the IC50 was 100 to 500 nM.

As for `Cc1cc(-c2cnc3sc(N)nc3c2)cc2c1OCCN(c1nc(C3CCCN3)nc(C)c1C(C)C)C2` (centres unmarked) [Compound 146, 6-{9-methyl-4-[6-methyl-5-(1-methylethyl)-2-pyrrolidin-2-ylpyrimidin-4-yl]-2,3,4,5-tetrahydro-1,4-benzoxazepin-7-yl}[1,3]thiazolo[5,4-b]pyridin-2-amine], the IC50 was at most 100 nM.

Consider `Cc1cnc(N)nc1N1CCOc2c(C)cc(-c3nnc(N)s3)cc2C1` [Compound 178, 4-[7-(5-amino-1,3,4-thiadiazol-2-yl)-9-methyl-2,3-dihydro-1,4-benzoxazepin-4(5H)-yl]-5-methylpyrimidin-2-amine], for which the IC50 was at most 100 nM.

For `Cc1cc(-c2cnc3sc(N)nc3c2)cc2c1OCCN(c1nc(CN(C)C)nc(C)c1C(C)C)C2` [Compound 31, 6-(4-{2-[(dimethylamino)methyl]-6-methyl-5-(1-methylethyl)pyrimidin-4-yl}-9-methyl-2,3,4,5-tetrahydro-1,4-benzoxazepin-7-yl)[1,3]thiazolo[5,4-b]pyridin-2-amine], the IC50 was at most 100 nM.

As to `Cc1cc(-c2nnc(N)s2)cc2c1OCCN(c1nc(CNCC(F)F)nc(C)c1C(C)C)C2` [Compound 169, 5-{4-[2-{[(2,2-difluoroethyl)amino]methyl}-6-methyl-5-(1-methylethyl)pyrimidin-4-yl]-9-methyl-2,3,4,5-tetrahydro-1,4-benzoxazepin-7-yl}-1,3,4-thiadiazol-2-amine], the IC50 is at most 100 nM.

As for `Cc1cc(-c2cnc3sc(N)nc3c2)cc2c1OCCN(c1nc(CN(C)C)ncc1CC(F)(F)F)C2` [Compound 60, 6-(4-{2-[(dimethylamino)methyl]-5-(2,2,2-trifluoroethyl)pyrimidin-4-yl}-9-methyl-2,3,4,5-tetrahydro-1,4-benzoxazepin-7-yl)[1,3]thiazolo[5,4-b]pyridin-2-amine], the IC50 lay within 100 to 500 nM.

For `COc1ccc(-c2cc(C)c3c(c2)CN(c2nc(N)nc(C)c2C(C)C)CCO3)cn1` [Compound 74, 4-methyl-5-(1-methylethyl)-6-{9-methyl-7-[6-(methyloxy)pyridin-3-yl]-2,3-dihydro-1,4-benzoxazepin-4(5H)-yl}pyrimidin-2-amine], the IC50 fell in the range of 100 to 500 nM.

In general, IC50 refers to the point on the concentration scale where inhibition reaches its midpoint.
